# Measured values as given in article PMC8671332 (Journal of cellular biochemistry, 2021).
# What was measured:
# [1] = target: Na+/K+-ATPase (α1β1) (Sus scrofa, UniProt P05024); experiment: biochemical
# [2] = system: plasma membrane Ca2+-ATPase (PMCA; isoform not resolved); type: cell-based
Structure (SMILES),IC50 [1] [nM],% inhibition at 100 nM [2]
"C[C@@H]1O[C@@H](O[C@H]2CC[C@@]3(C)[C@H](CC[C@@H]4[C@@H]3CC[C@]3(C)[C@@H](C5=CC(=O)OC5)CC[C@]43O)C2)[C@H](O)[C@H](O)[C@H]1O [compound 1, digitoxigenin-α-L-rhamno-pyranoside]",12 ± 1,
"C[C@@H]1O[C@@H](O[C@H]2CC[C@@]3(C)[C@H](CC[C@@H]4[C@@H]3CC[C@]3(C)[C@@H](C5=CC(=O)OC5)CC[C@]43O)C2)CC[C@H]1O [compound 2, digitoxigenin-α-L-amiceto-pyranoside]",41 ± 3,~ 25% inhibition at 100
